In PMC12150283, “Synthesis of new Ag(I) and Cd(II) hydrozanomide-based complexes with antibacterial and anticancer properties” (RSC Advances, 2025):
Like-named read-outs stand apart in the source and are kept apart here.

What was measured:
B. subtilis ATCC 6633 = assay: Diffusion-well method, inhibition zones; type: cell-based, Bacillus subtilis; details: 500 µg/mL, wells 10 mm
Protocol: (§1) The antibacterial activity of tested samples was assessed against both gram-positive bacteria (Staphylococcus aureus ATCC 25923, Staphylococcus aureus ATCC 6538, Staphylococcus epidermidis ATCC 12228, Enterococcus faecalis ATCC 29212, Listeria monocytogenes ATCC 19115, Bacillus subtilis ATCC 6633, Bacillus cereus ATCC 10876) and gram-negative bacteria (Escherichia coli ATCC 10530, Salmonella typhimurium ATCC 14028). Antibacterial properties were evaluated using both the dilution method (employing DMSO and 96-well plates) and the diffusion-well method (using Mueller Hinton Agar, Merck, Germany).
(§2) 24 hour bacterial cultures with a density of 1–2 × 10^8 CFU mL^−1 were plated (0.1 mL) on Mueller–Hinton Agar (Merck, Germany). Subsequently, wells with a diameter of 10 mm were cut out from and filled with 100 μL of the tested compound at a concentration of 10–500 μg mL^−1 (diluted in DMSO). After an 18-hour incubation at either 30 °C (for Bacillus ssp.) or 37 °C (for other tested microorganisms), the inhibition zones around the wells were measured, and the results were expressed in millimetres (Table S9 ^†).

glioblastoma U87 cells = assay: MTT cell viability assay; type: cell-based, human; details: 48 hours of incubation
Protocol: (§3) The glioblastoma cell lines LN-229 and U87 and the reference human normal skin fibroblast BJ were obtained from the American Type Culture Collection (ATCC). Cells were grown as monolayers when cultured in cell culture flasks and cultured in Dulbecco's Modified Eagle Medium (DMEM) – LN-229 and Eagle's Minimum Essential Medium (EMEM) – U87 and BJ, supplemented with 10% (v/v) fetal bovine serum, penicillin (10 000 U mL^−1), streptomycin (10 mg mL^−1) and amphotericin B (250 μg mL^−1). The cells were incubated at 37 °C, 5% CO2 atmosphere. The cells were maintained in the logarithmic growth phase by regular passage at 80% confluence.
(§4) The cytotoxicity of the tested compounds was evaluated against both human glioblastoma LN-229 and U-87 as well as normal BJ cell lines. The cells were plated in 96-well culture plates (2 × 10^4 well) and after 24 h incubation the cells were treated with the tested compounds in the concentration range 1–50 μM. The cells were cultured for the next 48 h. The cytotoxicity of the compounds was evaluated using the MTT colorimetric method as previously described.[28,29] IC50 values were determined using the AAT Bioquest IC50 calculator as the concentration of compounds capable of reducing cell viability by 50%. The experiment was performed in triplicate for each concentration. To examine the cytotoxic effect of compounds on cell morphology, cells were examined under an inverted phase contrast microscope Nikon Eclipse Ti with NIS Element software (Tokyo, Japan).

[1] = system: normal skin fibroblast BJ cells; assay: MTT cell viability assay; type: cell-based, human; details: BJ normal fibroblasts, 48 hours of incubation
Protocol: as §3, §4

[2] = system: glioblastoma LN-229 cells; assay: MTT cell viability assay; type: cell-based, human; details: 48 hours of incubation
Protocol: as §3, §4

[3] = system: L. monocytogenes ATCC 19115; assay: Diffusion-well method, inhibition zones; type: cell-based, Listeria monocytogenes; details: 500 µg/mL, wells 10 mm
Protocol: as §1, §2

S. aureus ATCC 6538 = assay: Diffusion-well method, inhibition zones; type: cell-based, Staphylococcus aureus; details: 500 µg/mL, wells 10 mm
Protocol: as §1, §2

S. aureus ATCC 25923 = assay: Diffusion-well method, inhibition zones; type: cell-based, Staphylococcus aureus; details: 500 µg/mL, wells 10 mm
Protocol: as §1, §2

[4] = system: S. Typhimurium ATCC 14028; assay: Diffusion-well method, inhibition zones; type: cell-based, Salmonella typhimurium; details: 500 µg/mL, wells 10 mm
Protocol: as §1, §2

E. coli ATCC 10530 = assay: Diffusion-well method, inhibition zones; type: cell-based, Escherichia coli; details: 500 µg/mL, wells 10 mm
Protocol: as §1, §2

E. faecalis ATCC 29212 = assay: Diffusion-well method, inhibition zones; type: cell-based, Enterococcus faecalis; details: 500 µg/mL, wells 10 mm
Protocol: as §1, §2

[5] = system: Bacillus cereus ŁOCK 0807; assay: MIC determination; type: cell-based; details: Bacillus cereus ŁOCK 0807; 18 h
Protocol: as §1
(§5) The minimum inhibitory concentrations (MICs) of the tested samples were evaluated against a panel of reference microorganisms obtained from the American Type Culture Collection (ATCC), including Gram-negative bacteria (Escherichia coli ATCC 10530, Salmonella typhimurium ATCC 14028), and Gram-positive bacteria (Staphylococcus aureus ATCC 25923, Staphylococcus aureus ATCC 6538, Staphylococcus epidermidis ATCC 12228, Enterococcus faecalis ATCC 29212, Listeria monocytogenes ATCC 19115, Bacillus subtilis ATCC 6633), and one strain (Bacillus cereus ŁOCK 0807) obtained from the Pure Culture of Industrial Microorganisms of the Institute of Fermentation Technology and Microbiology ŁOCK 105 (Łódź, Poland).
(§6) The microorganism cultures with a density of 1.5 × 10^8 CFU mL^−1 (corresponding to a McFarland standard of 0.5) were plated on Mueller–Hinton Agar (Merck, Germany) following the procedures recommended by the European Committee on Antimicrobial Susceptibility Testing (EUCAST).[47] Wells measuring 10 mm in diameter were cut into the medium. The tested compounds were dissolved in a DMSO solution, which was recommended due to their chemical structures. Subsequently, 100 μL of prepared solutions containing the tested compounds at concentrations ranging from x μg mL^−1 to x μg mL^−1 were added to each well. The plates were incubated at 30 °C (for Bacillus subtilis and Bacillus cereus) or 37 °C (for other bacteria) for 18 hours. After incubation, the minimum inhibitory concentration (MIC value) was determined (the lowest concentration of the tested compounds that prevents bacterial growth) and expressed in μg mL^−1. The experiment was conducted in three independent replicates. Ciprofloxacin (Sigma Aldrich, Saint Louis, MO, USA) was used as a reference antimicrobial agent against Gram-negative bacteria, while vancomycin (Sigma Aldrich, Saint Louis, MO, USA) was used as a reference antimicrobial agent against Gram-positive bacteria.

[6] = system: Escherichia coli ATCC 10530; assay: MIC determination; type: cell-based
Protocol: as §1, §5, §6

[7] = system: Staphylococcus aureus ATCC 6538; assay: MIC determination; type: cell-based; details: S. aureus ATCC 6538; 18 h
Protocol: as §1, §5, §6

[8] = system: Staphylococcus aureus ATCC 25923; assay: MIC determination; type: cell-based; details: S. aureus ATCC 25923, 18 h
Protocol: as §1, §5, §6

[9] = system: Enterococcus faecalis ATCC 29212; assay: MIC determination; type: cell-based; details: E. faecalis ATCC 29212; 18 h
Protocol: as §1, §5, §6

[10] = system: Salmonella typhimurium ATCC 14028; assay: MIC determination; type: cell-based; details: S. typhimurium ATCC 14028; 18 h
Protocol: as §1, §5, §6

[11] = system: Listeria monocytogenes ATCC 19115; assay: MIC determination; type: cell-based
Protocol: as §1, §5, §6

[12] = system: Bacillus subtilis ATCC 6633; assay: MIC determination; type: cell-based; details: 18 h
Protocol: as §1, §5, §6

[13] = system: Staphylococcus epidermidis ATCC 12228; assay: MIC determination; type: cell-based; details: S. epidermidis ATCC 12228; 18 h
Protocol: as §1, §5, §6

B. cereus ŁOCK 0807 = assay: Diffusion-well method, inhibition zones; type: cell-based, Bacillus cereus; details: 500 µg/mL, wells 10 mm
[14] = system: S. epidermidis ATCC 12228; assay: Diffusion-well method, inhibition zones; type: cell-based, Staphylococcus epidermidis; details: 500 µg/mL, wells 10 mm
Protocol: as §1, §2

[15] = system: Staphylococcus epidermidis ATCC 12228; parameters: method as in earlier work; details: pure ligands, S. epidermidis ATCC 12228; previous study ref 29; cited from earlier work
[16] = system: Staphylococcus aureus ATCC 25923; parameters: method as in earlier work; details: pure ligands, S. aureus ATCC 25923; previous study ref 29; cited from earlier work
[17] = system: Enterococcus faecalis ATCC 29212; parameters: method as in earlier work; details: pure ligands, E. faecalis ATCC 29212; previous study ref 29; cited from earlier work
[18] = system: Salmonella typhimurium ATCC 14028; parameters: method as in earlier work; details: pure ligands, S. typhimurium ATCC 14028; previous study ref 29; cited from earlier work
[19] = Escherichia coli ATCC 10530, 18 h
[20] = Listeria monocytogenes ATCC 19115, 18 h

Compound | Inhibition zone (B. subtilis ATCC 6633) [mm] | IC50 (glioblastoma U87 cells) [µM] | IC50 [1] [µM] | IC50 [2] [µM] | Inhibition zone [3] [mm] | Inhibition zone (S. aureus ATCC 6538) [mm] | Inhibition zone (S. aureus ATCC 25923) [mm] | Inhibition zone [4] [mm] | Inhibition zone (E. faecalis ATCC 29212) [mm] | MIC [5] [µg/mL] | MIC [6, 19] [µg/mL] | MIC [7] [µg/mL] | MIC [8] [µg/mL] | MIC [15] [µg/mL] | MIC [16] [µg/mL] | MIC [17] [µg/mL] | IC50 (glioblastoma U87 cells; Homo sapiens, U-87 MG) [µM] | IC50 ([1]; Homo sapiens) [µM] | IC50 ([2]; Homo sapiens) [µM] | MIC [18] [µg/mL] | other results
NC(=NN=Cc1ccc([N+](=O)[O-])cc1)c1cccc(Cl)n1.O=[N+]([O-])[O-].[Ag+] [Complex 2, AgL2NO3] | 16 | > 50 | 14.5 ± 2.82 | 37.2 ± 6.55 | 19 | 22 | 19 | 19 | 14 | 50 | 10 | 50 | 50 | – | – | – | – | – | – | – | Inhibition zone (E. coli ATCC 10530): 20 mm; MIC ([6]; Escherichia coli): 10 µg/mL; MIC [9]: 50 µg/mL; MIC [10]: 50 µg/mL; MIC ([11]; Listeria monocytogenes): 10 µg/mL; MIC [11, 20]: 10 µg/mL; MIC [12]: 50 µg/mL; MIC [13]: > 500 µg/mL; Inhibition zone (B. cereus ŁOCK 0807): 18 mm
NC(=NN=Cc1ccc([N+](=O)[O-])cc1)c1cccc(N2CCCC2)n1.NC(=NN=Cc1ccc([N+](=O)[O-])cc1)c1cccc(N2CCCC2)n1.O=[N+]([O-])[O-].[Ag+] [Complex 4, AgL4NO3] | 18 | 1.22 ± 0.34 | > 50 | > 50 | 19 | 16 | 21 | 17 | 15 | 50 | ≤ 10 | 100 | ≤ 10 | – | – | – | – | – | – | – | Inhibition zone (E. coli ATCC 10530): 20 mm; Inhibition zone [14]: 16 mm; MIC ([6]; Escherichia coli ATCC 10530, 18 h, listed as 4): < 10 µg/mL; MIC ([8]; listed as 4): <10 µg/mL; MIC [9]: 50 µg/mL; MIC [10]: 100 µg/mL; MIC [11, 20]: ≤ 10 µg/mL; MIC ([11]; Listeria monocytogenes ATCC 19115, 18 h, listed as 4): 10 µg/mL; MIC [12]: 50 µg/mL; MIC [13]: 50 µg/mL; Inhibition zone (B. cereus ŁOCK 0807): 17 mm
NC(=NN=Cc1ccccc1)c1cncc(N2CCOCC2)n1.O.O=[N+]([O-])[O-].[Ag+] [Complex 5, AgL5NO3 × H2O] | 18 | 49.7 ± 3.11 | > 50 | > 50 | 19 | 17 | 19 | 17 | 17 | 50 | > 500 | 10 | 50 | – | – | – | – | – | – | – | Inhibition zone [14]: 18 mm; MIC [9]: 50 µg/mL; MIC [10]: 50 µg/mL; MIC [11, 20]: 10 µg/mL; MIC [12]: 50 µg/mL; MIC [13]: <10 µg/mL; Inhibition zone (B. cereus ŁOCK 0807): 19 mm
NC(=NN=Cc1ccccc1)c1cncc(Cl)n1 [Complex L1, N′-(benzylidene)-6-chloropyrazine-2-carbohydrazonamide] | – | – | – | – | – | – | – | – | – | – | – | – | – | 500 | 500 | 250 | > 50 | > 50 | > 50 | >500 | –
N/C(=N\N=C\c1ccc([N+](=O)[O-])cc1)c1cccc(N2CCCC2)n1 [Complex L4, (4-nitrobenzylidene)-6-(pyrrolidin-1-yl)picolinohydrazonamide] | – | – | – | – | – | – | – | – | – | – | – | – | – | >500 | >500 | >500 | > 50 | > 50 | 48.1 ± 6.09 | >500 | –
N/C(=N\N=C\c1ccccc1)c1cncc(N2CCOCC2)n1 [Complex L5, (benzylidene)-6-morpholinopyrazine-2-carbohydrazonamide] | – | – | – | – | – | – | – | – | – | – | – | – | – | >500 | >500 | >500 | > 50 | > 50 | > 50 | >500 | –
N/C(=N\N=C\c1ccccc1)c1cncc(N2CCCC2)n1 [Complex L6, (benzylidene)-6-(pyrrolidin-1-yl)pyrazine-2-carbohydra-zonamide] | – | – | – | – | – | – | – | – | – | – | – | – | – | 500 | 500 | 500 | > 50 | 42.4 ± 6.17 | > 50 | 500 | –
